Patent US20180073018A1, “COMPOSITIONS AND METHODS FOR SPECIFIC REACTIVATION OF HIV LATENT RESERVOIR” (priority 2015, published 2018)

Tests used:
HIV-1 LTR promoter [1] = experiment: dCas9-VPH/msgRNA (or SAHA) reactivation of latent LTR-eLuc reporter in TZM-bI cells; format: cell-based
Procedure: Cells were plated in 96-well plate and the indicated MS2-gRNAs were cotransfected by Lipofectamine 3000 (FIG. 3A) or coinfected by lentiviruses (FIG. 3B, MOI=50) with pMSCV-LTR-dCas9-VP64-BFP plus pLV-MS2-p65-HSF1-GFP. Two days later, OneGlo luminescence assay was performed. The SIV MS2-gRNA-D was used as negative control. […] The gRNA-J has no effect due to 2 nucleotides mismatch to the LTR sequence from TZM-bI cells.
FIG. 8A, FIG. 8B, FIG. 8C, and FIG. 8D, depict the results of experiments of screening of MS2-mediated sgRNAs (msgRNAs) targeting the HIV-1 long terminal repeat (LTR) in the dCas9-synergistic activation mediator (SAM) system. FIG. 8A is a schematic illustration of SAM-VPH complex derived from dCas9-VP64 (V) and MS2-p65-HSF1 (PH) with msgRNAs. FIG. 8B is a graph showing similar activation of transfected EcoHIV-eLuc reporter by inducible (TRE) or constitutive (LTR) dCas9-VP64 expression in HEK293T cells. FIG. 8C is a graph showing similar reactivation of latent HIV-LTR-eLuc reporter in TZM-bI cells after either transient plasmid transfection by Lipofectamine 3000 or stable infection by lentivirus. […] The gRNA-J has no effect due to 2 nucleotides mismatch to the LTR sequence from TZM-bI cells. […]
FIG. 9A and FIG. 9B: TZM-bI cells were infected with dCas9-VPH and indicated msgRNA lentiviruses at 1 or 10 MOI and luciferase activity was measured at 2-21 days post-infection (dpi). […]
(§1) FIG. 12A, FIG. 12B, FIG. 12C: The dCas9-VPH stable TZM-bI cells were treated with SAHA or infected with indicated msgRNAs lentivirus for 2-4 d before luminescence reporter assay (FIG. 12A) and CELLTITER-GLO® luminescent cell viability assay (FIG. 12B). […]
Experiments were conducted to compare reactivation of HIV-LTR luciferase reporter in TZM-BI cells induced by gRNA/dCas9-VP64/MS2-p65-HSF1/delivered by either transient plasmid transfection (FIG. 3A) or stable lentivirus infection (FIG. 3B). […] Two days later, OneGlo luminescence assay was performed. […]

HIV-1 LTR promoter [2] = experiment: HIV-1 EGFP reporter reactivation in latent CHME5 microglial cells; format: cell-based; details: dCas9-VPH stable CHME5, 500 nM, 4 d
Text: Cells were infected with pMSCV-LTR-dCas9-VP64-puromycin and Lenti-MS2-p65-HSF1-hygromysin, selected for 10 days. The population cells were infected with Lenti-MS2-gRNAs-Zeosin and the fluorescent micrographs were taken at 1 day after infection (FIG. 5B). Cells were continuously cultured for 7 days, and selected with triple antibiotics (puromycin-hygromycin-Zeocin) for 3 days before flow cytometry (FIG. 5C).
FIG. 9A and FIG. 9B: TZM-bI cells were infected with dCas9-VPH and indicated msgRNA lentiviruses at 1 or 10 MOI and luciferase activity was measured at 2-21 days post-infection (dpi). FIG. 9C, FIG. 9D: indicated HIV-1 EGFP reporter T cell lines were infected with dCas9-VPH and indicated msgRNAs lentiviruses at 10 MOI and flow cytometric analysis for EGFP percentage (FIG. 9C) and individual intensity (FIG. 9D) was performed at 1 dpi. […]
as §1
Cells were trypsinized (for CHME5) or collected (for suspension T cell lines), washed with PBS and fixed in 2% paraformaldehyde for 10 minutes at room temperature. Then, cells were washed twice with PBS and analyzed using a Guava EasyCyte Mini flow cytometer (Guava Technologies). […]

O=C(CCCCCCC(=O)Nc1ccccc1)NO [SAHA, suberoylanilide hydroxamic acid]
activation of LTR-eLuc reporter (HIV-1 LTR promoter [1]; TZM-bI, 500 nM): did not activate
reactivation of LTR-eLuc reporter (HIV-1 LTR promoter [1]; TZM-bI, 5,000 nM): 4 fold
HIV-1 provirus reactivation (EGFP) (HIV-1 LTR promoter [2]): marginal increase
